Experimental data as given in patent US20090275780A1, “PROCESS FOR CONTROLLING THE PARTICLE SIZE OF A 3-(TRIFLUOROMETHYL)PHENYL]-1-AMINOPROPANE DERIVATIVE” (MEDICHEM, S.A., priority 2008, published 2009).

Assay: Particle size distribution by Malvern Mastersizer S particle size analyzer
Type: physicochemical
Conditions: for particle size D[v, 0.5] / particle size D[v, 0.9]: crystals as isolated after crystallization from isobutyl acetate and drying, by volume, mean of nine readings, hydrochloride; for AFTER MILLING D[v, 0..5] / AFTER MILLING D[v, 0.9]: after milling 1 hour, Specac Specamill, three agate balls, maximum amplitude; for BEFORE MILLING D[v, 0.9]: in µm (unit assumed)
Procedure: The particle size for cinacalcet hydrochloride was measured using a Malvern Mastersizer S particle size analyzer with an MS1 Small Volume Sample Dispersion Unit stirred cell. A 300RF mm lens and a beam length of 2.4 mm were used. Samples for analysis were prepared by dispersing a weighed amount of cinacalcet hydrochloride (approximately 60 mg) in 20 mL of sample dispersant, previously prepared by dilution of 1.5 g of Soybean Lecithin to 200 mL with Isopar G. The suspension was delivered drop-wise to the background-corrected measuring cell filled with dispersant (Isopar G) until the obscuration reached the desired level. Nine repeated readings of the volume distributions were taken. For characterization, the values of D50 and D90 (by volume) were selected and reported as the mean of the nine values measured.

[1] = listed as Cinacalcet hydrochloride from Example 4, hydrochloride
[2] = listed as Cinacalcet hydrochloride from Example 7, hydrochloride
[3] = listed as Cinacalcet hydrochloride from Example 9, hydrochloride

C[C@@H](NCCCc1cccc(C(F)(F)F)c1)c1cccc2ccccc12.Cl [Example 1, cinacalcet hydrochloride]
particle size D[v, 0.5]: 23.4 μm | particle size D[v, 0.9]: 95.4 μm

C[C@@H](NCCCc1cccc(C(F)(F)F)c1)c1cccc2ccccc12.Cl [Example 2, cinacalcet hydrochloride]
particle size D[v, 0.5]: 20.7 μm | particle size D[v, 0.9]: 86.1 μm

C[C@@H](NCCCc1cccc(C(F)(F)F)c1)c1cccc2ccccc12.Cl [Example 3, cinacalcet hydrochloride]
particle size D[v, 0.5]: 49.8 μm | particle size D[v, 0.9]: 387.9 μm

C[C@@H](NCCCc1cccc(C(F)(F)F)c1)c1cccc2ccccc12.Cl [Example 4, cinacalcet hydrochloride]
AFTER MILLING D[v, 0..5] [1]: 25.7 µm | AFTER MILLING D[v, 0.9] [1]: 91.8 µm | BEFORE MILLING D[v, 0..5] [1]: 57.7 µm | BEFORE MILLING D[v, 0.9] [1]: 403.9 | particle size D[v, 0.5]: 57.7 μm | particle size D[v, 0.9]: 403.9 μm

C[C@@H](NCCCc1cccc(C(F)(F)F)c1)c1cccc2ccccc12.Cl [Example 5, cinacalcet hydrochloride]
particle size D[v, 0.5]: 76.4 μm | particle size D[v, 0.9]: 456.0 μm

C[C@@H](NCCCc1cccc(C(F)(F)F)c1)c1cccc2ccccc12.Cl [Example 6, cinacalcet hydrochloride]
particle size D[v, 0.5]: 65.0 μm | particle size D[v, 0.9]: 392.3 μm

C[C@@H](NCCCc1cccc(C(F)(F)F)c1)c1cccc2ccccc12.Cl [Example 7, cinacalcet hydrochloride]
AFTER MILLING D[v, 0..5] [2]: 21.2 µm | AFTER MILLING D[v, 0.9] [2]: 83.3 µm | BEFORE MILLING D[v, 0..5] [2]: 70.3 µm | BEFORE MILLING D[v, 0.9] [2]: 431.7 | particle size D[v, 0.5]: 70.3 μm | particle size D[v, 0.9]: 431.7 μm

C[C@@H](NCCCc1cccc(C(F)(F)F)c1)c1cccc2ccccc12.Cl [Example 8, cinacalcet hydrochloride]
particle size D[v, 0.5]: 67.2 μm | particle size D[v, 0.9]: 459.0 μm

C[C@@H](NCCCc1cccc(C(F)(F)F)c1)c1cccc2ccccc12.Cl [Example 9, cinacalcet hydrochloride]
AFTER MILLING D[v, 0..5] [3]: 25.1 µm | AFTER MILLING D[v, 0.9] [3]: 76.7 µm | BEFORE MILLING D[v, 0..5] [3]: 74 µm | BEFORE MILLING D[v, 0.9] [3]: 518.3 | particle size D[v, 0.5]: 74.0 μm | particle size D[v, 0.9]: 518.3 μm

C[C@@H](NCCCc1cccc(C(F)(F)F)c1)c1cccc2ccccc12.Cl [Example 11, cinacalcet hydrochloride]
particle size D[v, 0.5]: 99.8 μm | particle size D[v, 0.9]: 466.9 μm
